Results on two compounds are retold here after US11459306B2, “Compounds, compositions, and methods for treating T-cell acute lymphoblastic leukemia” (The Trustees of Columbia University in the City of New York, priority 2017, dated 2022).

Usually Kd stands for a measure of binding affinity in units of concentration. A high value points to lower affinity.

Each structure is given as a SMILES string.

Data set [1] has as its system T-ALL. Description: Tumor burden and survival of mice with T-ALL. Format: in vivo.
The test system of data set [2] is mouse PTEN null/NOTCH activated T-ALL cell line. The data set can be described thus: Gene set enrichment analysis of murine T-ALL disease signature after drug treatment. Format: cell-based. As to conditions: GSEA of T-ALL disease signature; 2.5 μM, 12 hours. The method, then: This was also accomplished by generating gene expression signatures to assess the effects of drug treatment. Global gene expression profiles were obtained in triplicate using a mouse PTEN null/NOTCH activated T-ALL cell line driven by over expression of the transcription factor LMO2. […] Tumor cells were cultured in the presence of CAL-130 (2.5 μM) or the gamma-secretase inhibitor (GSI) Compound E (1 μM). Compound E blocks the activity of NOTCH1, which is also believed to support T-ALL tumor formation, proliferation, and survival. Drug treated cells were harvested at time points known to affect the expression of the proto-oncogene cMyc (12 hours and 48 hours, respectively), a master regulator of cell growth, metabolism and survival. A Venn diagram was created to illustrate the overlap in genes altered by either PI3Kγ/δ blockade (red circle) or GSI (green circle) using a false discovery rate (FDR) of 0.0005 as cut off (FIG. 1A). Of note, ten-fold more genes were affected following PI3Kγ/δ blockade, including the majority (˜62%) of genes altered by GSI monotherapy, a highly significant finding (Fisher's exact test, P<2.2×10^−16).
A murine T-ALL disease signature was further defined by ranking all genes based on their differential expression in T-ALL samples compared to wild type murine thymocytes. […]

Data set [3] concerns human primary T-ALL cells. The data set can be described thus: Akt phosphorylation and pro-apoptotic pathways in human primary T-ALL cells. Type of data set: cell-based.
In the next data set the target is T1, PIK3CA (PI3Kα) (Homo sapiens, UniProt P42336).
T1 construct: purchased DiscoverX (KINOMEscan); host or cells: E. coli BL21-derived host (T7 phage) or HEK-293
T1 sequence (P42336 whole entry): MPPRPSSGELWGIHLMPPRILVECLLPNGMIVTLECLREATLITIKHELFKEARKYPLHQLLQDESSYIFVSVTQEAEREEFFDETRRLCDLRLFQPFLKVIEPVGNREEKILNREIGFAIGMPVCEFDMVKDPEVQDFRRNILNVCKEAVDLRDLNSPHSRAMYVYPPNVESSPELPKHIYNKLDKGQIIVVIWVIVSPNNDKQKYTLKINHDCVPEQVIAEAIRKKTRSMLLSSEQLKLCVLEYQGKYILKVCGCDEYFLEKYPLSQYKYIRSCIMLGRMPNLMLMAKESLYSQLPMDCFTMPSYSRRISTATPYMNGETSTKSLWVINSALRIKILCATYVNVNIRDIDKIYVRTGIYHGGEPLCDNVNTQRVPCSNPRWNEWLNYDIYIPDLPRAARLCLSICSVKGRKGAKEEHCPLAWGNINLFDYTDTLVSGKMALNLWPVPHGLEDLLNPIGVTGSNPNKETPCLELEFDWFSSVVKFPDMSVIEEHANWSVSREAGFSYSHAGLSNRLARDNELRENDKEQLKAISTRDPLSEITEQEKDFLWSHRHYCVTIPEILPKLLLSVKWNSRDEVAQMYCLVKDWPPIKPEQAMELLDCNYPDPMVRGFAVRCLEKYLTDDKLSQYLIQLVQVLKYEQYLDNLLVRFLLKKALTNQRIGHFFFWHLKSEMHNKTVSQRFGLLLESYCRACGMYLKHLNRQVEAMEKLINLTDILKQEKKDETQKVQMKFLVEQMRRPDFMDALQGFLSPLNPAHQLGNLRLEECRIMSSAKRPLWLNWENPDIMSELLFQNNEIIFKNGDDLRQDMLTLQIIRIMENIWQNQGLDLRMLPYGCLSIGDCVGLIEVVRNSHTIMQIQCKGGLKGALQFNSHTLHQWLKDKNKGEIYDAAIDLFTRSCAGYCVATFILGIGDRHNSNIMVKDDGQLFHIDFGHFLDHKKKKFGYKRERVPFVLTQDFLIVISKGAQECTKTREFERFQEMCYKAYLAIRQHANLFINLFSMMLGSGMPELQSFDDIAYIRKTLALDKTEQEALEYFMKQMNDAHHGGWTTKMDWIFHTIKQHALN
Description: KINOMEscan competition binding assay (DiscoverX). The note with it: DiscoveRx gene symbol PIK3CA (PI3Kα). Here is the method: (§1) The compounds were tested using KINOMEscan™ (DiscoverX), which is based on a competition binding assay that quantitatively measures the ability of a compound to compete with an immobilized, active-site directed ligand. The assay is performed by combining three components: DNA-tagged kinase; immobilized ligand; and a test compound. The ability of the test compound to compete with the immobilized ligand is measured via quantitative PCR of the DNA tag.
(§2) For most assays, kinase-tagged T7 phage strains were prepared in an E. coli host derived from the BL21 strain. E. coli were grown to log-phase and infected with T7 phage and incubated with shaking at 32° C. until lysis. The lysates were centrifuged and filtered to remove cell debris. The remaining kinases were produced in HEK-293 cells and subsequently tagged with DNA for qPCR detection. Streptavidin-coated magnetic beads were treated with biotinylated small molecule ligands for 30 minutes at room temperature to generate affinity resins for kinase assays. The liganded beads were blocked with excess biotin and washed with blocking buffer (SeaBlock (Pierce), 1% BSA, 0.05% Tween 20, 1 mM DTT) to remove unbound ligand and to reduce non-specific binding. Binding reactions were assembled by combining kinases, liganded affinity beads, and test compounds in 1× binding buffer (20% SeaBlock, 0.17×PBS, 0.05% Tween 20, 6 mM DTT). Test compounds were prepared as 111× stocks in 100% DMSO. Kds were determined using an 11-point 3-fold compound dilution series with three DMSO control points. All compounds for Kd measurements are distributed by acoustic transfer (non-contact dispensing) in 100% DMSO. The compounds were then diluted directly into the assays such that the final concentration of DMSO was 0.9%. All reactions performed in polypropylene 384-well plate. Each was a final volume of 0.02 ml. The assay plates were incubated at room temperature with shaking for 1 hour and the affinity beads were washed with wash buffer (1×PBS, 0.05% Tween 20). The beads were then re-suspended in elution buffer (1×PBS, 0.05% Tween 20, 0.5 μM non-biotinylated affinity ligand) and incubated at room temperature with shaking for 30 minutes. The kinase concentration in the eluates was measured by qPCR.
(§3) An 11-point 3-fold serial dilution of each test compound was prepared in 100% DMSO at 100× final test concentration and subsequently diluted to 1× in the assay (final DMSO concentration=1%). Most Kds were determined using a compound top concentration=30,000 nM. If the initial Kd determined was <0.5 nM (the lowest concentration tested), the measurement was repeated with a serial dilution starting at a lower top concentration.
(§4) Binding constants (Kds) were calculated with a standard dose-response curve using the Hill equation: […]
(§5) The Hill Slope was set to −1. Curves were fitted using a non-linear least square fit with the Levenberg-Marquardt algorithm.

The next data set concerns the target T2, PIK3CB (PI3Kβ) (Homo sapiens, UniProt P42338).
T2 construct: purchased DiscoverX (KINOMEscan); host or cells: E. coli BL21-derived host (T7 phage) or HEK-293
The data set can be described thus: KINOMEscan competition binding assay (DiscoverX). The note with it: DiscoveRx gene symbol PIK3CB (PI3Kβ). The method, then: as §1, §2, §3, §4, §5

A further data set has as its target T3, PIK3CD (Homo sapiens, UniProt O00329).
T3 construct: purchased DiscoverX (KINOMEscan); host or cells: E. coli BL21-derived host (T7 phage) or HEK-293
T3 sequence (O00329 1-1044): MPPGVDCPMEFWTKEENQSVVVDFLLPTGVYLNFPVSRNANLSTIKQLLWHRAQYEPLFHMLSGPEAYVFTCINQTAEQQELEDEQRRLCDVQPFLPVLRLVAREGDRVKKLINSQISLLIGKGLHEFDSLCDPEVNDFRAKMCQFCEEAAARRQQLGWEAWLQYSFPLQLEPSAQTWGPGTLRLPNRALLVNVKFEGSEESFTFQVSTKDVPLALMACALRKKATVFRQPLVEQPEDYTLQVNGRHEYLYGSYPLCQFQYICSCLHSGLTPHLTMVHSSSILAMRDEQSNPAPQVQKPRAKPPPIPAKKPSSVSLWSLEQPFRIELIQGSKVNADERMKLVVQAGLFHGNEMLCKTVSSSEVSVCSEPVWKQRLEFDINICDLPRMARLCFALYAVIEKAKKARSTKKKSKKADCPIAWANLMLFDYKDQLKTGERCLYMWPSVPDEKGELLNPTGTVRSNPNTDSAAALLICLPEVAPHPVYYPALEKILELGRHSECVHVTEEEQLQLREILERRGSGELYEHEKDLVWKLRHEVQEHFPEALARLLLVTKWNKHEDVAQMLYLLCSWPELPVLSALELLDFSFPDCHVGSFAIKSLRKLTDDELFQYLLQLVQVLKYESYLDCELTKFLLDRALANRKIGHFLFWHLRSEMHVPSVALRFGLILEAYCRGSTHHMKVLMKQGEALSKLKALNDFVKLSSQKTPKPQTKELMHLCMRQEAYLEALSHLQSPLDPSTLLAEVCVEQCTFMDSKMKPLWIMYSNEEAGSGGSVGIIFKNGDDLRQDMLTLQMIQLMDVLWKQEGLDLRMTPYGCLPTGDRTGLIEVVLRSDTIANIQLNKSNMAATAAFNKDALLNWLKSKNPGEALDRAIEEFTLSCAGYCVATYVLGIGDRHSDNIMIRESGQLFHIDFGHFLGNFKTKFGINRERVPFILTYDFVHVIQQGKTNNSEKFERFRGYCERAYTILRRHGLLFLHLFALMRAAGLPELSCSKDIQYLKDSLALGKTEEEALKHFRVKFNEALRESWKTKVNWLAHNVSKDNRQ
The data set can be described thus: KINOMEscan competition binding assay (DiscoverX). The note with it: DiscoveRx gene symbol PIK3CD (b251 prints: PI3Kγ). Here is the method:
as §1, §2, §3, §4, §5

Another data set concerns the target T4, PIK3CG (Homo sapiens, UniProt P48736).
T4 construct: purchased DiscoverX (KINOMEscan); host or cells: E. coli BL21-derived host (T7 phage) or HEK-293
Description: KINOMEscan competition binding assay (DiscoverX). The note with it: DiscoveRx gene symbol PIK3CG (b251 prints: PI3Kδ). Here is the method: as §1, §2, §3, §4, §5

In a further data set the test system is T-ALL cell line. Description: T-ALL cell viability / cell death. Format: cell-based, murine. The method, then:
Compounds DWL-PI3K-1, DWL-PI3K-2, DWL-PI3K-3, DWL-PI3K-4, DWL-PI3K-5, DWL-PI3K-6 and DWL-PI3K-7, and reference compounds CAL-130, tenalisib, duvelisib were evaluated for efficacy (cell viability by measuring ATP (CellTiter-Glo) or propidium iodide (PI) uptake) against a number of cancer cells, including LMO-2-007, OCI-LY-10, HH, H9, PF382 and CCRF-CEM.

Data set [4] relates to T-ALL. Description: Mice with genetically induced T-ALL expressing luciferase treated with DWL-PI3K-3. The note with it: 10 mg/kg every 12 h for 7 days; luciferin signal and Ki67/thy1.2 positive population. Format: in vivo.
Data set [5] is described as follows: Pharmacokinetics relative to CAL-130. Format: in vivo.

T4 sequence (P48736 whole entry): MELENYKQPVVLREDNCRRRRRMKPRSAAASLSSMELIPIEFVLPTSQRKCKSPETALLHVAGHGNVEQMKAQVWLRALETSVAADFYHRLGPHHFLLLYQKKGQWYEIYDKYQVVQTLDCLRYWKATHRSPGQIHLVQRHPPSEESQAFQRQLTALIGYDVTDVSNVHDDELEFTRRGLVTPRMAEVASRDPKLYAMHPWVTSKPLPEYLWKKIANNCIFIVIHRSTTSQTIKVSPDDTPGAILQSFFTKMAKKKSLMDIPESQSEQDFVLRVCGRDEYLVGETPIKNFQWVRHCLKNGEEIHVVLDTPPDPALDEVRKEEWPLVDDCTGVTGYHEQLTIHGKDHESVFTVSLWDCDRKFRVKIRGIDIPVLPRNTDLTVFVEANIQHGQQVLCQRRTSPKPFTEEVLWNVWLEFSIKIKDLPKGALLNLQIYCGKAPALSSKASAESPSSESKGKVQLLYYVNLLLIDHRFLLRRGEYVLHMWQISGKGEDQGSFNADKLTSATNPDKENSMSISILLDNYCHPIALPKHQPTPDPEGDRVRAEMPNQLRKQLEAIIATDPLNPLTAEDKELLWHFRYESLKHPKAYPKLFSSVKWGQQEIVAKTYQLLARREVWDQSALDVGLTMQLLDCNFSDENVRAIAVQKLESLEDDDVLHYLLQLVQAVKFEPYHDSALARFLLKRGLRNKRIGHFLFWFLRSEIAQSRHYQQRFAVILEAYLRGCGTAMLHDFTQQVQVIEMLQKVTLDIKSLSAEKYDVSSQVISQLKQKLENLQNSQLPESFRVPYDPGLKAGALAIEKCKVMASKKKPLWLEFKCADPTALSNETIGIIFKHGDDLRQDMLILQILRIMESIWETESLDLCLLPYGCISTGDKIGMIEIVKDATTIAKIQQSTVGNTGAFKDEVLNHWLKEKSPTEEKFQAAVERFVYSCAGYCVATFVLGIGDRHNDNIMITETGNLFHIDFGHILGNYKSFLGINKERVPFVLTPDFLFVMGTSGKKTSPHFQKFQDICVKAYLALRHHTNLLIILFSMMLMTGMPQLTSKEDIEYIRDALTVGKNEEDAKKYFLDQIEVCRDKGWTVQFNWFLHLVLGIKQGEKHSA
T2 sequence (P42338 whole entry): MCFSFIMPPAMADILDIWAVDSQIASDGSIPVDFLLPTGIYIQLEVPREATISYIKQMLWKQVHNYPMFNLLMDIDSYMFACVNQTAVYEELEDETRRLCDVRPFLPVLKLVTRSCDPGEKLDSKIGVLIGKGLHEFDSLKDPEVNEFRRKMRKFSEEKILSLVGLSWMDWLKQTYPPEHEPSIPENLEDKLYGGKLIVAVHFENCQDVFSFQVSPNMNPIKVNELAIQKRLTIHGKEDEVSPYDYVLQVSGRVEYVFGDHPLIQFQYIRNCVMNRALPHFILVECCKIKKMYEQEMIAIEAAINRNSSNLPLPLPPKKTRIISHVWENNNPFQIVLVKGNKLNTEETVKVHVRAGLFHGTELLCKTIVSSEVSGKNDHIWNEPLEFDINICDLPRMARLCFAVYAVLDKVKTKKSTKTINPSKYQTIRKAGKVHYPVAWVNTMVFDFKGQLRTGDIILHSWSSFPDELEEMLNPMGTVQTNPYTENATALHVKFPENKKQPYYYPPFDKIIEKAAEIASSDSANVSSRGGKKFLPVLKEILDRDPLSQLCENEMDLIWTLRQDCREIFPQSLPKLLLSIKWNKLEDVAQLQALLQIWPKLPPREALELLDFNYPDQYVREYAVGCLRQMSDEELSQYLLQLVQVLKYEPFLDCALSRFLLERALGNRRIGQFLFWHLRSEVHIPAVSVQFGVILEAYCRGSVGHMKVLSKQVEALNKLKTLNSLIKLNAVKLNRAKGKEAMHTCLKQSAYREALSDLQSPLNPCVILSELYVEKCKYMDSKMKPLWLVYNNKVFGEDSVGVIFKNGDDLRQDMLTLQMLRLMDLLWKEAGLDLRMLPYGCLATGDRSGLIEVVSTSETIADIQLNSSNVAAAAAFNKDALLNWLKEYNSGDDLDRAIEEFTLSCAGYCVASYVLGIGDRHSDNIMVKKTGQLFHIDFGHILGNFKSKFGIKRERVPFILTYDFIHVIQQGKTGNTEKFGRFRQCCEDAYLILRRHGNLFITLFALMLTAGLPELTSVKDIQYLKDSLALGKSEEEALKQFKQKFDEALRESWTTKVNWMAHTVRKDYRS

`Cc1ccccc1-n1c([C@H](C)Nc2nc(N)nc3[nH]cnc23)nc2cccc(C)c2c1=O` [CAL-130]: in the data set with T-ALL [1], the “effect on tumor burden and survival” value was “significantly reduced tumor burden and prolonged survival of diseased mice”. In the data set on T-ALL [1] (10 mg/kg tid), the mean survival is reported as 45 days. In data set [2], the “normalized enrichment score (NES)” value was −5.8. For the same compound, in [3], the “Akt phosphorylation and pro-apoptotic pathways” value is “abolished Akt phosphorylation and activated pro-apoptotic pathways”.
As for `C[C@H](Nc1nc(N)nc(N)c1C#N)c1cc2cccc(Cl)c2c(=O)n1-c1ccccc1` [DWL-PI3K-3, (S)-2,4-diamino-6-((1-(8-chloro-1-oxo-2-phenyl-1,2-dihydroisoquinolin-3-yl)ethyl)amino)pyrimidine-5-carbonitrile], the Kd on PIK3CA (PI3Kα) is 4 nM; on PIK3CB (PI3Kβ), 0.084 nM; on PIK3CD, 0.14 nM; on PIK3CG, 0.12 nM. For the same compound, in the data set on T-ALL cell line (cultured T-ALL cells), the “efficacy in inducing T-ALL cell death relative to CAL-130” value is given as “greater efficacy than CAL-130”. In the data set with T-ALL cell line (relative to CAL-130), the “amount needed relative to CAL-130 to achieve a similar reduction in tumor cell survival” value is on record as “about 10 fold less”. Further, the tumor burden result in the data set on T-ALL [4] is “significant reduction in tumor burden”. The pharmacokinetics entry in data set [5] was “better pharmacokinetics”.
